The target in one assay is T1, Adenosine receptor A1 (Homo sapiens, UniProt P30542).
T1 sequence (P30542 whole entry): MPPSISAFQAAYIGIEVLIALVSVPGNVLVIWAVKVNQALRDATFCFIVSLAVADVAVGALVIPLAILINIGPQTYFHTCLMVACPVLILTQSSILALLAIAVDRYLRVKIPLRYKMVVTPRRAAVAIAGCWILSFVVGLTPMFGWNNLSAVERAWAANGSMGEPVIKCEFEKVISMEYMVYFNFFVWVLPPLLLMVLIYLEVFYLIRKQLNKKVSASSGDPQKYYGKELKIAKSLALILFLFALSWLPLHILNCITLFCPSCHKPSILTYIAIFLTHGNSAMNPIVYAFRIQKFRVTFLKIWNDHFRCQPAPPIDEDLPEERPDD
In words: Displacement of [3H]DPCPX at human A1 receptor expressed in CHO cell membrane after 120 mins by scintillation counting method. Format: cell membranes. For orientation: Displacement assays read how much labelled ligand stays bound in the presence of the test substance.

The target in assay [1] is T2, Adenosine receptor A2a (Homo sapiens, UniProt P29274). In words: Displacement of [3H]ZM241385 at human A2A receptor expressed in CHO cell membrane after 60 mins by scintillation counting method. The class given is cell membranes.
The target of assay [2] is T3, Adenosine receptor A3 (Homo sapiens, UniProt P0DMS8).
T3 sequence (P0DMS8 whole entry): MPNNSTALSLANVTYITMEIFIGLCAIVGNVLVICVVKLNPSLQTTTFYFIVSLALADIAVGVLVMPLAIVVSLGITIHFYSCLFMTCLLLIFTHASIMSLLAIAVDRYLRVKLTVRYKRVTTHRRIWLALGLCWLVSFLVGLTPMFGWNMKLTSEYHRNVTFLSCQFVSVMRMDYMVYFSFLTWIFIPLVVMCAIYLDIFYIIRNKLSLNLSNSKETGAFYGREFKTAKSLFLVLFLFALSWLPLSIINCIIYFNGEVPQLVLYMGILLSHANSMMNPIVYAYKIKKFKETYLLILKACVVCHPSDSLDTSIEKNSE
In words: Displacement of [125I]AB-MECA at human […] receptor expressed in CHO cell membrane after 60 mins by scintillation counting method. The class given is cell membranes.

Assay [3] deals with T4, Adenosine receptor A2b (Homo sapiens) (UniProt P29275).
T4 sequence (whole entry): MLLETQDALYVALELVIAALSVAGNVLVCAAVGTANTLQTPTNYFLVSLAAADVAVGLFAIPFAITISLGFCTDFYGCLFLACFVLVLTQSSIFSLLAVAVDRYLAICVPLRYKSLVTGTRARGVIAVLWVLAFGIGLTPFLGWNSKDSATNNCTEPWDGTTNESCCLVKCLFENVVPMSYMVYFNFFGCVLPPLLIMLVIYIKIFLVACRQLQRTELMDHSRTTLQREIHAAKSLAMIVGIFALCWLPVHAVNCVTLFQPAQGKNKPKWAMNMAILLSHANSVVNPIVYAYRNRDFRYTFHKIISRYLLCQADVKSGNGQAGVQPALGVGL
In words: Antagonist activity at human A2B receptor expressed in CHO cells assessed as inhibition of NECA-stimulated cAMP production at 1 uM by scintillation counting method. The class given is functional, cell-based. (Cyclic AMP is a second messenger, typically raised through Gs and lowered through Gi signalling.)

The target in assay [4] is T5, Adenosine receptor A1 (Homo sapiens) (UniProt P30542).
T5 sequence (whole entry): T1 sequence (P30542 whole entry)
The assay can be described thus: Displacement of [3H]DPCPX at human A1 receptor expressed in CHO cell membrane at 1 uM after 120 mins by scintillation counting method. The class given is cell membranes.

Assay [5] has as its target T2, Adenosine receptor A2a. In words: Displacement of [3H]ZM241385 at human A2A receptor expressed in CHO cell membrane at 1 uM after 60 mins by scintillation counting method. Format: cell membranes.
In assay [6] the target is T3, Adenosine receptor A3. The assay can be described thus: Antagonist activity at human A3 receptor expressed in CHO cells assessed as inhibition of Cl-IB-MECA-induced cAMP production by scintillation counting method. Format: functional, cell-based.
For assay [7], the target named is T6, Adenosine receptor A3 (Rattus norvegicus, UniProt P28647).
T6 sequence (P28647 whole entry): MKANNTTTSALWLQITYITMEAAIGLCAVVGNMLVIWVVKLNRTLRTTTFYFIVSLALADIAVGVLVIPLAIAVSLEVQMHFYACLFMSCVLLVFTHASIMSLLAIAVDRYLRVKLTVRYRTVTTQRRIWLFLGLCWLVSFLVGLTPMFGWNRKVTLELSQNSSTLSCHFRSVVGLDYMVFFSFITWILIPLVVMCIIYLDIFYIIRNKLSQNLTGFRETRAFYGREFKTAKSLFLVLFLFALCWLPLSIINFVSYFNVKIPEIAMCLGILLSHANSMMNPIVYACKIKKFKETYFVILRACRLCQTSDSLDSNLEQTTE
The assay can be described thus: Displacement of [125I]AB-MECA at rat A3 receptor expressed in HEK293 cells after 60 mins by scintillation counting method. The class given is cell-based.

SMILES strings stand for the structures. Some results are limits rather than exact numbers.

We go through six compounds from ChEMBL document CHEMBL3751669, “Structural refinement of pyrazolo[4,3-d]pyrimidine derivatives to obtain highly potent and selective antagonists for the human A3 adenosine receptor” (Eur J Med Chem, 2016).

For orientation: Ki means the equilibrium dissociation constant of an inhibitor or competing ligand from its target. Read a high Ki as lower affinity. As usually defined, the inhibition is how much of the control response was suppressed. A word on the IC50: it is the concentration that gives 50% inhibition.

T2 sequence (P29274 whole entry): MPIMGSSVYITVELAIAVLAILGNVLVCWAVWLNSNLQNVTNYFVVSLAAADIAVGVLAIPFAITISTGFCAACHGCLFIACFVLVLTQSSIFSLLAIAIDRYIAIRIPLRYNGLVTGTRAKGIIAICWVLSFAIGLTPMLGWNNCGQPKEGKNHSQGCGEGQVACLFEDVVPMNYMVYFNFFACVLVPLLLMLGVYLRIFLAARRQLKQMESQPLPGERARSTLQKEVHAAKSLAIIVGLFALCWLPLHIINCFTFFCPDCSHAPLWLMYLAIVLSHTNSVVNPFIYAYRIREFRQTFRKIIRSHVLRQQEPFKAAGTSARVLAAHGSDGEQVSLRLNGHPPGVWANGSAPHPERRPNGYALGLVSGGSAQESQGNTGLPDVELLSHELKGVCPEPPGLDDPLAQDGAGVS

For the compound `Nc1nc(-c2ccccc2)nc2cn(Cc3ccccc3)nc12`, the Ki is 250 nM on Adenosine receptor A1, 300 nM on Adenosine receptor A2a [1] and 54 nM on Adenosine receptor A3 [2]. The inhibition in assay [3] came out at 1%.
For the compound `COc1ccc(C(=O)Nc2nc(-c3cccs3)nc3cn(-c4ccccc4)nc23)cc1`, the inhibition (in assay [4]; at Adenosine receptor A2a [5]; in assay [3]) was 1% in each case. The Ki is 0.027 nM on Adenosine receptor A3 [2] and above 10000 nM at Adenosine receptor A3 [7]. Further, at Adenosine receptor A3 [6], the IC50 is 0.11 nM.
Take `COc1ccc(C(=O)Nc2nc(-c3ccc(OC)cc3)nc3cn(-c4ccccc4)nc23)cc1`: the inhibition in assay [4] is 3%; at Adenosine receptor A2a [5], 1%; in assay [3], 1%. In addition, the Ki on Adenosine receptor A3 [2] was 1.31 nM; at Adenosine receptor A3 [7], above 10000 nM. Besides, on Adenosine receptor A3 [6], the IC50 was 4.27 nM.
`COc1ccc(-c2nc(NC(=O)c3ccncc3)c3nn(-c4ccccc4)cc3n2)cc1`: the inhibition in assay [4] came out at 3%; at Adenosine receptor A2a [5], 1%; in assay [3] it was 1%. The Ki at Adenosine receptor A3 [2] is 9.83 nM; on Adenosine receptor A3 [7], above 10000 nM. For the same compound, the IC50 at Adenosine receptor A3 [6] turned out to be 39 nM.
Take `COc1ccc(-c2nc(NC(=O)c3ccccc3)c3nn(-c4ccccc4)cc3n2)cc1`: the inhibition in assay [4] is 2%; on Adenosine receptor A2a [5], 1%; in assay [3], 1%. Moreover, the Ki on Adenosine receptor A3 [2] is 6.42 nM; at Adenosine receptor A3 [7], above 10000 nM. Moreover, at Adenosine receptor A3 [6], the IC50 was 26 nM.
For `Nc1nc(-c2cccs2)nc2cn(-c3ccccc3)nc12`, the Ki at Adenosine receptor A1 stood at 52 nM; on Adenosine receptor A2a [1], 115 nM; on Adenosine receptor A3 [2], 9.7 nM. Further, the inhibition in assay [3] was determined as 27%.
